{
  "source": "patent US10800741B2",
  "about": "(ANCUREALL PHARMACEUTICAL (SHANGHAI) CO., LTD., priority 2017, dated 2020)",
  "assay_in_all_cases": "KINOMEscan in vitro binding to 468 labeled protein kinases",
  "key": {"protein kinases [1]": {"target": "T1, protein kinases (Homo sapiens, UniProt P00533, G719C)", "T1 construct": "purchased Discovery X company (USA), KINOMEscan screening platform", "T1 sequence (P00533 25-1210 G719C)": "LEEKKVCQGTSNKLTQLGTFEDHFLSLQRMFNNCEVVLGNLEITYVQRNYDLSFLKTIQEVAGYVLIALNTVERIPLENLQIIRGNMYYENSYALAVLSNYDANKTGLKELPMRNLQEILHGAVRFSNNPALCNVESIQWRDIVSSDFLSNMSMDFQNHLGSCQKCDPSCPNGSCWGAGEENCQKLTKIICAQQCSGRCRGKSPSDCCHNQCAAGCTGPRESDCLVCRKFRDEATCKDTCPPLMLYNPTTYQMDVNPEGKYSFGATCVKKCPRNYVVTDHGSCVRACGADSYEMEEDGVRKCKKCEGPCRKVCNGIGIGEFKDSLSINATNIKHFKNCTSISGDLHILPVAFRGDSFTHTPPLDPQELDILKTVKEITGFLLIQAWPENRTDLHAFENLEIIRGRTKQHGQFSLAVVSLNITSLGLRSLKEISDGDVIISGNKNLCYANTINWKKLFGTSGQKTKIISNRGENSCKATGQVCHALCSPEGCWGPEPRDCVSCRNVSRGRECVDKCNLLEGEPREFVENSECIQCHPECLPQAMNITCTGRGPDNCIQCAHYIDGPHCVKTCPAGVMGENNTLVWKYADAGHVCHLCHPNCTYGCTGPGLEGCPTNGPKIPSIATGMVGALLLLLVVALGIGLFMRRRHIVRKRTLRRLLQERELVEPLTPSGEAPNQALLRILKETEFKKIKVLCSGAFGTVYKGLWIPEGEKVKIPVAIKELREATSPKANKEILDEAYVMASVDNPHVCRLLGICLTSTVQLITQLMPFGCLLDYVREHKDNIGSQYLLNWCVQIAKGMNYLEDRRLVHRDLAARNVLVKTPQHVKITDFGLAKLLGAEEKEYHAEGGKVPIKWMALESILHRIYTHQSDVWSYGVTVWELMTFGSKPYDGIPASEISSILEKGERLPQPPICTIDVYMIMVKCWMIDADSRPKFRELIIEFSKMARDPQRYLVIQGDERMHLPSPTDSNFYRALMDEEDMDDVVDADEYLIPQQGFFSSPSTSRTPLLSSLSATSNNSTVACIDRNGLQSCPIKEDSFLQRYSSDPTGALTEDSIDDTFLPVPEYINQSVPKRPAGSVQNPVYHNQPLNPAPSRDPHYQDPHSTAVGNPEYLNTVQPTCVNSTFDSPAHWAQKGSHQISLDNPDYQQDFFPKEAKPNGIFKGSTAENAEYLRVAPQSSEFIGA", "conditions": "EGFR(G719C)", "procedure": "(§1) Test Example 6 Determination of Binding Affinity of the Present Compounds on Protein Kinases In Vitro\n(§2) KINOMEscan screening platform of Discovery X company (USA) was used to identify the binding targets of the present compounds to protein kinases. Compound 66 of the present invention was dissolved in DMSO (Sigma Aldrich) at concentrations of 1000 nM, 10 nM and 1 nM, and then was subjected to in vitro binding reaction with 468 labeled protein kinases. Two samples were taken in parallel for each assay sample.\n(§3) The lower the percentage of the test compound to the solvent control, the stronger the binding affinity of the test compound to the protein kinase in vitro."}, "protein kinases [2]": {"target": "T2, protein kinases (Homo sapiens, UniProt P00533, T790M)", "T2 construct": "purchased Discovery X company (USA), KINOMEscan screening platform", "T2 sequence (P00533 25-1210 T790M)": "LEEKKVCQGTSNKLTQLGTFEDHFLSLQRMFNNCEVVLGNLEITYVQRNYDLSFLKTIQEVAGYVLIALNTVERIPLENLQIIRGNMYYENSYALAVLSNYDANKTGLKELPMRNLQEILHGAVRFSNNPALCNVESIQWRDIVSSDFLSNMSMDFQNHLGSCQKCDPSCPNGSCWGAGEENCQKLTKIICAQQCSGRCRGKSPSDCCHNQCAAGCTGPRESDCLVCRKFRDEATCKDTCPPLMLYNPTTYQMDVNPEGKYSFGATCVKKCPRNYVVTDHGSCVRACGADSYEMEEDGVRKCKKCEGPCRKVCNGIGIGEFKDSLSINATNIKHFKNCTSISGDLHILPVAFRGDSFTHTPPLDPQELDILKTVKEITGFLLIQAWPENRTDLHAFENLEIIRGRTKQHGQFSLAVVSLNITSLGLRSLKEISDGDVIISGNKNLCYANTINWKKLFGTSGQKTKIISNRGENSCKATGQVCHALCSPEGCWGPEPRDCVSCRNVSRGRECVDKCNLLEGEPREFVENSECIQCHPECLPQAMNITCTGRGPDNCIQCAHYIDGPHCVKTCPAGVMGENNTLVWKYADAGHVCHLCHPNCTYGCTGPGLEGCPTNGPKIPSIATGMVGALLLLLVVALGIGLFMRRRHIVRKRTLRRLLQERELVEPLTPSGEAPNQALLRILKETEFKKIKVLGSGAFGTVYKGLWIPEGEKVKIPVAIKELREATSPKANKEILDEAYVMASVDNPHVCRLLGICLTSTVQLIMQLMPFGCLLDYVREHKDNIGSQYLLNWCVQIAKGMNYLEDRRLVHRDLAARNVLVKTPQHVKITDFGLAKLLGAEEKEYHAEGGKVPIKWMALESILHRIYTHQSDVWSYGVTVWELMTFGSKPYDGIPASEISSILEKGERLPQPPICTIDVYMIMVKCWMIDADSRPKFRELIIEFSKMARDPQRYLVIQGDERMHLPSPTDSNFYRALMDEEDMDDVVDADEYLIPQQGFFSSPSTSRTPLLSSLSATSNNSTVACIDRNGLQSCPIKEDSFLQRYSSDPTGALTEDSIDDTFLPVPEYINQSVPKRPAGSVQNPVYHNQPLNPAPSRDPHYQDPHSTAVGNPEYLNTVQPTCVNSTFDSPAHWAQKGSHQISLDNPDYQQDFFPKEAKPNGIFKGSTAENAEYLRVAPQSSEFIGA", "conditions": "EGFR(T790M)", "procedure": "as §1, §2, §3"}, "protein kinases [3]": {"target": "T3, protein kinases (Homo sapiens, UniProt P07949, M918T)", "T3 construct": "purchased Discovery X company (USA), KINOMEscan screening platform", "T3 sequence (P07949 29-1114 M918T)": "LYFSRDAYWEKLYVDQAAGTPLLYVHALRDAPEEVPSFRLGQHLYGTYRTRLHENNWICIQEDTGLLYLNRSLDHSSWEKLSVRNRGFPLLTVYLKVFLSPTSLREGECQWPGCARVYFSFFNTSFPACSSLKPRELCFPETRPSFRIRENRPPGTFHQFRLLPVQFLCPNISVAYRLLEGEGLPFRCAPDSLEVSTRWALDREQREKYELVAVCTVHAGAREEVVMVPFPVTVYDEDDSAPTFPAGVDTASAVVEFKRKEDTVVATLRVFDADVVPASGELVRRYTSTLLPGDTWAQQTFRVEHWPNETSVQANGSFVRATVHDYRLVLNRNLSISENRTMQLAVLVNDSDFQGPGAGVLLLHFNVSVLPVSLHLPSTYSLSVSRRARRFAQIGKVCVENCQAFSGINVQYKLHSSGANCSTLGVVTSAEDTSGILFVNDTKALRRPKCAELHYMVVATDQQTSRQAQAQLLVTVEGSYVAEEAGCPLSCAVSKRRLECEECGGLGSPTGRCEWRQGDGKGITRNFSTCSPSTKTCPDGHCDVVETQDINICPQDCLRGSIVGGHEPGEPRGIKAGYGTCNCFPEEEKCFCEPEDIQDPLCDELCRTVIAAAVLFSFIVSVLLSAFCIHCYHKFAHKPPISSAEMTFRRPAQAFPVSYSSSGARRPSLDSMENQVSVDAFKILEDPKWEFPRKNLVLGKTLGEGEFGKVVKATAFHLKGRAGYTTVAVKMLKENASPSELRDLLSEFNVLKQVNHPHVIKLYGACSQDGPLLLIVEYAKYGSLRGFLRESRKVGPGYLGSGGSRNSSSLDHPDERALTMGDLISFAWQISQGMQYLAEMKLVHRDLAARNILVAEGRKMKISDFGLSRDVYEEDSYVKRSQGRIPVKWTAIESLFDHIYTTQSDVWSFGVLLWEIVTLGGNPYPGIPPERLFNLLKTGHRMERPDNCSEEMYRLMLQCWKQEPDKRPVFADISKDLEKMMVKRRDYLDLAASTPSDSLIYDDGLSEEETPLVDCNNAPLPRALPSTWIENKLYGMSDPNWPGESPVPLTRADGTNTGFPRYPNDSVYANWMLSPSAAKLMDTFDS", "conditions": "RET(M918T), read-out: Test compound/solvent control (%)", "procedure": "as §1, §2, §3"}, "protein kinases [4]": {"target": "T4, protein kinases (Homo sapiens, UniProt P10721, V559D)", "T4 construct": "purchased Discovery X company (USA), KINOMEscan screening platform", "conditions": "KIT(V559D), read-out: Test compound/solvent control (%)", "procedure": "as §1, §2, §3"}, "protein kinases [5]": {"target": "T5, protein kinases (Homo sapiens, UniProt P35590)", "T5 construct": "purchased Discovery X company (USA), KINOMEscan screening platform", "T5 sequence (P35590 22-1138)": "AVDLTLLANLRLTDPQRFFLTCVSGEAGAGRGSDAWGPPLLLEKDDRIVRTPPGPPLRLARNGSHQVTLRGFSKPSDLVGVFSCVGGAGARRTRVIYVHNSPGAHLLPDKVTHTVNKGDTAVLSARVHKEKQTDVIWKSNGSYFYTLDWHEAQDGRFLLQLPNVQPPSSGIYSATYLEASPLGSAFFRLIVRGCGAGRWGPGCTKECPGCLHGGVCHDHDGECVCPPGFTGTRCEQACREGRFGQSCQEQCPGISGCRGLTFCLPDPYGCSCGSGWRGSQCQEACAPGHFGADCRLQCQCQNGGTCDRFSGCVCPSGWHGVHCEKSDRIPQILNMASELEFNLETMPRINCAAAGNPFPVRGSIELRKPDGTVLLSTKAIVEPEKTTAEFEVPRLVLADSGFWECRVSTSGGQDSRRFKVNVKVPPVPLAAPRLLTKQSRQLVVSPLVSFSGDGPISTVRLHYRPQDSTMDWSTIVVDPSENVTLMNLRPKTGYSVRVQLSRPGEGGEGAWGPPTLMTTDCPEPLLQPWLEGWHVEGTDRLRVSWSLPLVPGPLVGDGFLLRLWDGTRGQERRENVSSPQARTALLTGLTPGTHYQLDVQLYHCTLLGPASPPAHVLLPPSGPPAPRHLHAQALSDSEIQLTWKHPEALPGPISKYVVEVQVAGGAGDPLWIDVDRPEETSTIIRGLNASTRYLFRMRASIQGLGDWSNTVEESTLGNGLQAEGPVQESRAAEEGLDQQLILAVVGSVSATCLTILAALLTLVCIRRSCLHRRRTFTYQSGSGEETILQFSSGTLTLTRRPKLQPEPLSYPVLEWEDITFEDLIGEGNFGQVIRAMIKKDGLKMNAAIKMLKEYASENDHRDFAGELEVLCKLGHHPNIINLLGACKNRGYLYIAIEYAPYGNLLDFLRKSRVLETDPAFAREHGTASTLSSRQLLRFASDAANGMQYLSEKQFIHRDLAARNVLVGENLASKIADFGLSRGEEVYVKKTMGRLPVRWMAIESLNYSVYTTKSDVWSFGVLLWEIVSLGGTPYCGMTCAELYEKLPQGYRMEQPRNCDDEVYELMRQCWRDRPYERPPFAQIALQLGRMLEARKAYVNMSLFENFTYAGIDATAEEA", "conditions": "TIE1, read-out: Test compound/solvent control (%)", "procedure": "as §1, §2, §3"}, "protein kinases [6]": {"target": "T6, protein kinases (Homo sapiens, UniProt P36888, N841I)", "T6 construct": "purchased Discovery X company (USA), KINOMEscan screening platform", "T6 sequence (P36888 27-993 N841I)": "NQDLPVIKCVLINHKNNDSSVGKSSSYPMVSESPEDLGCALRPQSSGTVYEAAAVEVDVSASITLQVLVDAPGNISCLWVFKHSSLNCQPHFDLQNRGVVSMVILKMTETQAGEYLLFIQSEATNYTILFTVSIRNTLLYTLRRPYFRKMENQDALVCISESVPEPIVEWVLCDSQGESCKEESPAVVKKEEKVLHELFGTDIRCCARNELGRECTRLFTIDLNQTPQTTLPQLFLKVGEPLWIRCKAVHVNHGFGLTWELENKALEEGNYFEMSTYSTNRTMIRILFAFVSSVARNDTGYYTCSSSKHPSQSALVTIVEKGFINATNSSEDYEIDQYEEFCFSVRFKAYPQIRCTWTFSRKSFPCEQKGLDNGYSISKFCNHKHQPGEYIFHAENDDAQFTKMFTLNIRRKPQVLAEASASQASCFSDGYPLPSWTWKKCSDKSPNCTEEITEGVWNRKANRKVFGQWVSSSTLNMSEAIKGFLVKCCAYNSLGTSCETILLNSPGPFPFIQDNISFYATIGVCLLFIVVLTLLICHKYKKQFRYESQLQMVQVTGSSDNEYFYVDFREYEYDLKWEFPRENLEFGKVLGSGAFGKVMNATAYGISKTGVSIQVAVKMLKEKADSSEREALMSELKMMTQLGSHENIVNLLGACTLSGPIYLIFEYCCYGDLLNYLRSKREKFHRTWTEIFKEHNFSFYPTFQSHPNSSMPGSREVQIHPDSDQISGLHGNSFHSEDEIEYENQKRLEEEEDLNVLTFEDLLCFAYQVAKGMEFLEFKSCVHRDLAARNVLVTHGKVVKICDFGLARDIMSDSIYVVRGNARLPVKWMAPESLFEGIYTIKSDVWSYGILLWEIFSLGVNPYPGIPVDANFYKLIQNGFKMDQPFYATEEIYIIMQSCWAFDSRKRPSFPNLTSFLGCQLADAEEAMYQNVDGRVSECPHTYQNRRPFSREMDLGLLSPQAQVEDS", "conditions": "FLT3(N841I), read-out: Test compound/solvent control (%)", "procedure": "as §1, §2, §3"}, "protein kinases [7]": {"target": "T7, protein kinases (Homo sapiens, UniProt Q12866)", "T7 construct": "purchased Discovery X company (USA), KINOMEscan screening platform", "T7 sequence (Q12866 21-999)": "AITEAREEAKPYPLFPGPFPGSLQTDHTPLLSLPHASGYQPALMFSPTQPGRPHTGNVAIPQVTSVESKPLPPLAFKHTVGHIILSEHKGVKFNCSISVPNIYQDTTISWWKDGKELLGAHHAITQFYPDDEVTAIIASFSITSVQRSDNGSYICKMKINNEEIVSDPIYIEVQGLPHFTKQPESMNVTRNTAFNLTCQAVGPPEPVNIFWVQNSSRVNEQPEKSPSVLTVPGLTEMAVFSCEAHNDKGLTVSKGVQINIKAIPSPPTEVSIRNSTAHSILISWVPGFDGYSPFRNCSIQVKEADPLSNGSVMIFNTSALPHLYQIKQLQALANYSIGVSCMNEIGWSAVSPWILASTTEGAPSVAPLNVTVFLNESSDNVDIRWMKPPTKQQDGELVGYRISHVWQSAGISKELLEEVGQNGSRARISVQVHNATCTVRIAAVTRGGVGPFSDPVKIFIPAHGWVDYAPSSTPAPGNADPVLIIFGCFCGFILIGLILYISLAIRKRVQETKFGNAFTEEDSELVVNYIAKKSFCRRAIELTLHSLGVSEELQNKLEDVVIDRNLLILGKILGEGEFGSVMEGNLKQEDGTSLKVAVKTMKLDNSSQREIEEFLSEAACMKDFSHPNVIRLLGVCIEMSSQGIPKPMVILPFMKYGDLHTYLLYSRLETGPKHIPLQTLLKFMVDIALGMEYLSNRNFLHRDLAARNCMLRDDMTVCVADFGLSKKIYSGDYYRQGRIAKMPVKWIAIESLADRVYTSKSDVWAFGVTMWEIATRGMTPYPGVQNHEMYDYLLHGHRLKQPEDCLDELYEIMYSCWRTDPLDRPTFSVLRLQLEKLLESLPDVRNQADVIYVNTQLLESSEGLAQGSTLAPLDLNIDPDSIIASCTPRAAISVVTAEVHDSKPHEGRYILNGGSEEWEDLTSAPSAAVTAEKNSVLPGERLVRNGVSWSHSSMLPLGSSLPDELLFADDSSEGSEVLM", "conditions": "MERTK, read-out: Test compound/solvent control (%)", "procedure": "as §1, §2, §3"}},
  "data": [
    {"molecule": "COCCOc1cc2nccc(Oc3ccc(NC(=O)Nc4cc(C(C)(C)C)n[nH]4)c(Cl)c3)c2cc1NC(C)=O", "note": "[Compound 66, N-[4-{4-[3-(5-tert-butyl-2H-pyrazol-3-yl)-ureido]-3-chloro-phenoxy}-7-(2-methoxy-ethoxy)-quinolin-6-yl]-acetamide]", "values": [
      {"measurement": "Test compound/solvent control (%)", "setting": "protein kinases [1]; 1 nM", "value": 83, "unit": "%"},
      {"measurement": "Test compound/solvent control (%)", "setting": "protein kinases [1]; 10 nM", "value": 30, "unit": "%"},
      {"measurement": "Test compound/solvent control (%)", "setting": "protein kinases [1]; 1000 nM", "value": 0.2, "unit": "%"},
      {"measurement": "Test compound/solvent control (%)", "setting": "protein kinases [2]; 1 nM", "value": 83, "unit": "%"},
      {"measurement": "Test compound/solvent control (%)", "setting": "protein kinases [2]; 10 nM", "value": 19, "unit": "%"},
      {"measurement": "Test compound/solvent control (%)", "setting": "protein kinases [2]; 1000 nM", "value": 0.2, "unit": "%"},
      {"measurement": "remaining binding at 0.001 µM", "setting": "protein kinases [3]; 1 nM", "value": 78, "unit": "%"},
      {"measurement": "remaining binding at 0.01 µM", "setting": "protein kinases [3]; 10 nM", "value": 8.5, "unit": "%"},
      {"measurement": "remaining binding at 1 µM", "setting": "protein kinases [3]; 1000 nM", "value": 0, "unit": "%"},
      {"measurement": "remaining binding at 0.001 µM", "setting": "protein kinases [4]; 1 nM", "value": 82, "unit": "%"},
      {"measurement": "remaining binding at 0.01 µM", "setting": "protein kinases [4]; 10 nM", "value": 18, "unit": "%"},
      {"measurement": "remaining binding at 1 µM", "setting": "protein kinases [4]; 1000 nM", "value": 0, "unit": "%"},
      {"measurement": "remaining binding at 0.001 µM", "setting": "protein kinases [5]; 1 nM", "value": 41, "unit": "%"},
      {"measurement": "remaining binding at 0.01 µM", "setting": "protein kinases [5]; 10 nM", "value": 21, "unit": "%"},
      {"measurement": "remaining binding at 1 µM", "setting": "protein kinases [5]; 1000 nM", "value": 2, "unit": "%"},
      {"measurement": "remaining binding at 0.001 µM", "setting": "protein kinases [6]; 1 nM", "value": 88, "unit": "%"},
      {"measurement": "remaining binding at 0.01 µM", "setting": "protein kinases [6]; 10 nM", "value": 17, "unit": "%"},
      {"measurement": "remaining binding at 1 µM", "setting": "protein kinases [6]; 1000 nM", "value": 0.25, "unit": "%"},
      {"measurement": "remaining binding at 0.001 µM", "setting": "protein kinases [7]; 1 nM", "value": 57, "unit": "%"},
      {"measurement": "remaining binding at 0.01 µM", "setting": "protein kinases [7]; 10 nM", "value": 4.1, "unit": "%"},
      {"measurement": "remaining binding at 1 µM", "setting": "protein kinases [7]; 1000 nM", "value": 0.65, "unit": "%"}
    ]}
  ]
}
